Measurements as given in patent US20130338142A1, “IMIDAZOPYRAZINE SYK INHIBITORS” (Gilead Connecticut, Inc., priority 2012, published 2013).
Values after ≈ are worked out from the molar mass of the structure shown.

How the values were obtained:
Syk = Syk (Homo sapiens, UniProt P43405); test: High throughput Syk assay (TR-FRET, KinEASE); assay type: biochemical; conditions: Syk TR-FRET assay of Example B2; 3 μM ATP, 0.5 nM Syk
Description: The following high throughput Syk assay was performed on the compounds of Table 1 as follows.
Syk activity was measured by detecting phosphorylated peptide substrate formation using antibody against phosphorylated peptide substrate. This is a time-resolved fluorescence resonance energy transfer (TR-FRET) immunoassay, based on the KinEASE Assay (Cisbio). […] Test compounds (in DMSO) were spotted into 384 well plates using a Labcyte® Echo 550 Liquid Handling System prior to addition of Syk enzyme and peptide substrate. Reaction solutions were delivered using a Multi-Flo (Bio-Tek Instruments). The enzyme and peptide solution was incubated with compound for 60 minutes at room temp before the reaction was initiated by the addition of ATP. […] The europium donor was excited using a 340-nm excitation filter with a 30-nm band pass. Energy transfer to the tracer was measured using a filter centered at 665 nm with a 10 nm bandpass. This signal was then referenced to the emission from europium peak, using a 615 nm, 10-nm bandpass filter. The “emission ratio” was calculated as the 665 nm signal divided by the 615 nm signal. Percentage of inhibition was calculated as below:
% Inhibition=100×(RatioSample−Ratio0% Inhibition)/(Ratio100% Inhibition−Ratio0% Inhibition)

Kinetic solubility study = conditions: 37 °C, kinetic from dmso stock
Description: The compounds tested (as listed in Table 2 below) were dissolved in dimethyl sulfoxide (DMSO) at a 10 mM concentration. A 3 μL sample aliquot of the DMSO solution is then added to 297 μL of desired aqueous media (pH 2, pH 5.4, and pH 7.4). The sample is then incubated for 24 hrs at 37° C. with shaking. After 24 hrs the samples are centrifuged, an aliquot of the supernatant liquid is removed and analyzed by HPLC. The compound concentration in the sample is determined by reference to a sample of the compound with known standard concentration.

[1] = aqueous media, pH 2, aqueous buffer
[2] = aqueous media, pH 5.4, aqueous buffer
[3] = aqueous media, pH 7.4, aqueous buffer

IC50 (Syk) [nM] | solubility at 24 h (Kinetic solubility study; [1]) [µM] | solubility at 24 h (Kinetic solubility study; [2]) [µM] | solubility at 24 h (Kinetic solubility study; [3]) [µM] | SMILES | also measured
4 | 94 (≈ 48.3 µg/mL) | 94 (≈ 48.3 µg/mL) | 57 (≈ 29.3 µg/mL) | COc1cc(Nc2nc(-c3ccc4c(c3)NCCO4)cn3ccnc23)ccc1N1CCN(C2COC2)CC1 [Compound 4, 6-(3,4-dihydro-2H-benzo[b][1,4]oxazin-6-yl)-N-(3-methoxy-4-(4-(oxetan-3-yl)piperazin-1-yl)phenyl)imidazo[1,2-a]pyrazin-8-amine] | –
7 | 100 (≈ 47.3 µg/mL) | 100 (≈ 47.3 µg/mL) | 100 (≈ 47.3 µg/mL) | COc1cc(Nc2nc(-c3ccc4c(c3)CNCCO4)cn3ccnc23)ccc1N1CCOCC1 [Compound 3] | –
– | – | – | – | COc1cc(Nc2nc(-c3ccc4cn[nH]c4c3)cn3ccnc23)ccc1N1CCOCC1 [Compound 90x, 6-(1H-indazol-6-yl)-N-(3-methoxy-4-morpholinophenyl)imidazo[1,2-a]pyrazin-8-amine, reference compound] | solubility at 24 h (Kinetic solubility study; pH 2, aqueous buffer): 94 µM (≈ 41.5 µg/mL); solubility at 24 h (Kinetic solubility study; pH 5.4, aqueous buffer): 3 µM (≈ 1.32 µg/mL); solubility at 24 h (Kinetic solubility study; pH 7.4, aqueous buffer): 3 µM (≈ 1.32 µg/mL)
3 | 98 (≈ 45 µg/mL) | 95 (≈ 43.7 µg/mL) | 95 (≈ 43.7 µg/mL) | COc1cc(Nc2nc(-c3cnc4c(c3)NCCO4)cn3ccnc23)ccc1N1CCOCC1 [Compound 1, 6-(2,3-dihydro-1H-pyrido[2,3-b][1,4]oxazin-7-yl)-N-(3-methoxy-4-morpholinophenyl)imidazo[1,2-a]pyrazin-8-amine] | –
– | – | – | – | COc1cc(Nc2nc(-c3cnc4c(c3)NCCO4)cn3ccnc23)ccc1N1CCOCC1 [Example 5a, 6-(2,3-dihydro-1H-pyrido[2,3-b][1,4]oxazin-7-yl)-N-(3-methoxy-4-morpholinophenyl)imidazo[1,2-a]pyrazin-8-amine] | melting point: 233 to 234 °C
– | 87 (≈ 39.9 µg/mL) | 10 (≈ 4.59 µg/mL) | 8 (≈ 3.67 µg/mL) | COc1cc(Nc2nc(-c3ccc4c(c3)NCCO4)cn3ccnc23)ccc1N1CCOCC1 [Compound 14x, 6-(3,4-dihydro-2H-benzo[b][1,4]oxazin-6-yl)-N-(3-methoxy-4-moipholinophenyl)imidazo[1,2-a]pyrazin-8-amine, reference compound] | –
4 | – | – | – | COc1cc(Nc2nc(-c3cnc4c(c3)NCCO4)cn3ccnc23)ccc1N1CCN(CC2(C)COC2)CC1 [Compound 28, 6-(2,3-dihydro-1H-pyrido[2,3-b][1,4]oxazin-7-yl)-N-(3-methoxy-4-(4-((3-methyloxetan-3-yl)methyl)piperazin-1-yl)phenyl)imidazo[1,2-a]pyrazin-8-amine] | –
3 | – | – | – | c1cn2cc(-c3cnc4c(c3)NCCO4)nc(Nc3ccc(N4CCN5CCOC[C@@H]5C4)cc3)c2n1 [Compound 82, (S)-6-(2,3-dihydro-1H-pyrido[2,3-b][1,4]oxazin-7-yl)-N-(4-(hexahydropyrazino[2,1-c][1,4]oxazin-8(1H)-yl)phenyl)imidazo[1,2-a]pyrazin-8-amine] | –
8 | – | – | – | CC(C)n1cc(Nc2nc(-c3cnc4c(c3)NCCO4)cn3ccnc23)cn1 [Compound 36, 6-(2,3-dihydro-1H-pyrido[2,3-b][1,4]oxazin-7-yl)-N-(1-isopropyl-1H-pyrazol-4-yl)imidazo[1,2-a]pyrazin-8-amine] | –
9 | – | – | – | c1cn2cc(-c3cnc4c(c3)NCCO4)nc(Nc3ccc4c(c3)OC[C@H]3COCCN43)c2n1 [Compound 43, (R)-N-(6-(2,3-dihydro-1H-pyrido[2,3-b][1,4]oxazin-7-yl)imidazo[1,2-a]pyrazin-8-yl)-2,4,4a,5-tetrahydro-1H-benzo[b][1,4]oxazino[4,3-d][1,4]oxazin-8-amine] | –
– | 100 (≈ 48.4 µg/mL) | 61 (≈ 29.5 µg/mL) | 33 (≈ 16 µg/mL) | c1cn2cc(-c3ccc4c(c3)NCCO4)nc(Nc3ccc(N4CCN(C5COC5)CC4)cc3)c2n1 [Compound 24, 6-(3,4-dihydro-2H-benzo[b][1,4]oxazin-6-yl)-N-(4-(4-(oxetan-3-yl)piperazin-1-yl)phenyl)imidazo[1,2-a]pyrazin-8-amine] | –
6 | – | – | – | CON=C1CCN(c2ccc(Nc3nc(-c4cnc5c(c4)NCCO5)cn4ccnc34)cc2OC)CC1 [Compound 106, 1-(4-((6-(2,3-dihydro-1H-pyrido[2,3-b][1,4]oxazin-7-yl)imidazo[1,2-a]pyrazin-8-yl)amino)-2-methoxyphenyl)piperidin-4-one O-methyl oxime] | –
3 | – | – | – | COc1cc(Nc2nc(-c3cnc4c(c3)NCCO4)cn3ccnc23)ccc1N1CCC2(CC1)OCCO2 [Compound 103, 6-(2,3-dihydro-1H-pyrido[2,3-b][1,4]oxazin-7-yl)-N-(3-methoxy-4-(1,4-dioxa-8-azaspiro[4.5]decan-8-yl)phenyl)imidazo[1,2-a]pyrazin-8-amine] | –
– | 90 (≈ 38.7 µg/mL) | 9 (≈ 3.87 µg/mL) | 9 (≈ 3.87 µg/mL) | c1cn2cc(-c3cnc4c(c3)NCCO4)nc(Nc3ccc(N4CCOCC4)cc3)c2n1 [Compound 28x, 6-(2,3-dihydro-1H-pyrido[2,3-b][1,4]oxazin-7-yl)-N-(4-morpholinophenyl)imidazo[1,2-a]pyrazin-8-amine, reference compound] | –

SMILES | IC50 (Syk) [nM] | solubility at 24 h (Kinetic solubility study; [1]) [µM] | solubility at 24 h (Kinetic solubility study; [2]) [µM] | solubility at 24 h (Kinetic solubility study; [3]) [µM] | also measured
COc1cc(Nc2nc(-c3cnc4c(c3)NCCO4)cn3ccnc23)ccc1OC1CCC1 [Compound 29, N-(4-cyclobutoxy-3-methoxyphenyl)-6-(2,3-dihydro-1H-pyrido[2,3-b][1,4]oxazin-7-yl)imidazo[1,2-a]pyrazin-8-amine] | 7 | – | – | – | –
